The text below walks through data of ChEMBL document CHEMBL1153180, “Discovery and initial optimization of 5,5'-disubstituted aminohydantoins as potent beta-secretase (BACE1) inhibitors” (Bioorg Med Chem Lett, 2010).

SMILES strings stand for the structures. Converted amounts (≈) assume the structure as drawn.

The target of data set [1] is T1, Beta-secretase 1 (Homo sapiens, UniProt P56817). Kind of data set: Inhibition of human BACE1 by FRET assay.
In a further data set the target is T2, Beta-secretase 2 (Homo sapiens, UniProt Q9Y5Z0).
T2 sequence (Q9Y5Z0 whole entry): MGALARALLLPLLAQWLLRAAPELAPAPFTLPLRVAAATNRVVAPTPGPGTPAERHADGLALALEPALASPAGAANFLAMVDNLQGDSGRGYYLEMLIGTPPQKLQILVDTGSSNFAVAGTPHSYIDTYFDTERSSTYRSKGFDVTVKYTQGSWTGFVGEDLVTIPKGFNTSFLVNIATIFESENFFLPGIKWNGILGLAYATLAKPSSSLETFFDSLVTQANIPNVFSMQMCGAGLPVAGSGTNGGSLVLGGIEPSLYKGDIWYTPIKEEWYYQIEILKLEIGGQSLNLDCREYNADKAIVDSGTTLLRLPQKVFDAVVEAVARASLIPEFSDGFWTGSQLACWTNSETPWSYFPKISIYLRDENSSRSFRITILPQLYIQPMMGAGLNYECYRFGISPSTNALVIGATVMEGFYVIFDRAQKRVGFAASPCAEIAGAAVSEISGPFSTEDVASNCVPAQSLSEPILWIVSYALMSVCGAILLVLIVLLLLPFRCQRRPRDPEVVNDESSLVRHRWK
Kind of data set: Inhibition of human BACE2 by FRET assay.

Data set [2] has as its target Beta-secretase 1 (Cricetulus griseus, UniProt G3IAK4). In words: Inhibition of human recombinant APP expressed in CHO-K1 cells assessed as reduction of amyloid beta level by ELISA. The class given is cell-based.
Data set [3] concerns the target T3, Cathepsin D (Homo sapiens, UniProt P07339). In words: Inhibition of human cathepsin D at 100 uM by FRET assay.
Data set [4] can be described thus: Membrane permeability by PAMPA. Particulars: read-out: permeability. The class given is ADME. A general note: PAMPA measures passive passage across an artificial lipid membrane.
A short description of data set [5]: Membrane permeability by PAMPA-BBB assay. It is filed as ADME. Particulars: read-out: permeability.
The nature of data set [6]: Solubility at pH 7.4. The class given is physicochemical. Particulars: buffer.
The target in data set [7] is T3, Cathepsin D. In words: Inhibition of human cathepsin D by FRET assay.
In data set [8] the target is T1, Beta-secretase 1. In words: Inhibition of human BACE1 at 5 uM by FRET assay.

Beta-secretase 1 (Cricetulus griseus, UniProt G3IAK4), sequence (G3IAK4 whole entry): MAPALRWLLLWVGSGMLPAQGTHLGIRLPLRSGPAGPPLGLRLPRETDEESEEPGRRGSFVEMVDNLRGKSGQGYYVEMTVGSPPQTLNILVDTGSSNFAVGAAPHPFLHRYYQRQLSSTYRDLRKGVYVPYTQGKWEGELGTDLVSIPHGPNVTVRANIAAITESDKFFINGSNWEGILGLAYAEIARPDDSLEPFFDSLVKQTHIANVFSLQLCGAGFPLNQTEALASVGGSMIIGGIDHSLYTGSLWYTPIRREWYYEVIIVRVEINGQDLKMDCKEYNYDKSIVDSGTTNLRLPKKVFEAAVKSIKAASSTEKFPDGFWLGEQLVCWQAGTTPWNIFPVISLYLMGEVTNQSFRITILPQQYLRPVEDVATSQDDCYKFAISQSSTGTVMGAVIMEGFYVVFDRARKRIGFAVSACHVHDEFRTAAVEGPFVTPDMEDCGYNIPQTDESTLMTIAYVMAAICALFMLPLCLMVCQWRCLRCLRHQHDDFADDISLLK
T1 sequence (P56817 whole entry): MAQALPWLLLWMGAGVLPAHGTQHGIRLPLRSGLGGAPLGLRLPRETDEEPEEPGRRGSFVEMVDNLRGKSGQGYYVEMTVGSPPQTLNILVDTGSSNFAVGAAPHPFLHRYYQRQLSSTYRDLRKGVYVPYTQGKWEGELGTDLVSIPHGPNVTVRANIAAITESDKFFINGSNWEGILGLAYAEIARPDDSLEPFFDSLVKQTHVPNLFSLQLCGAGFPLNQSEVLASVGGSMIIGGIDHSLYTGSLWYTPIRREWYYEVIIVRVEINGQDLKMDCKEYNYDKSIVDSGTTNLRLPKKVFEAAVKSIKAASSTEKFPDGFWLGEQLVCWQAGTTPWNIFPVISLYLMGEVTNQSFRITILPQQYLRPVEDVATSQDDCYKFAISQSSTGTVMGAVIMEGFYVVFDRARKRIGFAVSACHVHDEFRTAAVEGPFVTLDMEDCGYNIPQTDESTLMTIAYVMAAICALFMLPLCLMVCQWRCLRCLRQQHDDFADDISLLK
T3 sequence (P07339 65-162 limits assumed): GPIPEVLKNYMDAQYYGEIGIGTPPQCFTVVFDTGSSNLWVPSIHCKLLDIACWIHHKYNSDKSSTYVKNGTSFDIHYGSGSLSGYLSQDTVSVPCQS
T3 sequence (P07339 169-412 limits assumed): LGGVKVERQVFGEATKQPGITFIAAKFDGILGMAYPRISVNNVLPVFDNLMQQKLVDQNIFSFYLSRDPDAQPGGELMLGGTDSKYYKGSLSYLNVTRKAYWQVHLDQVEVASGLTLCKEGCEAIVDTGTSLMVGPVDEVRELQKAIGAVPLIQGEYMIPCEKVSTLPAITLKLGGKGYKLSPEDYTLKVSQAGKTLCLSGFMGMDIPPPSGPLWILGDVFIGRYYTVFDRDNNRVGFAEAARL

In general, IC50 refers to the concentration that inhibits the measured activity by half. Read a low IC50 as greater potency. Turning to `NC1=NC(c2ccccc2)(C2CCCCC2)C(=O)N1Cc1cc(F)cc(F)c1` (stereo not drawn), the IC50 against Beta-secretase 1 [1] is 1080 nM; against Beta-secretase 2 it was 410 nM.
In the same order, the values of `NC1=NC(c2ccccc2)(C2CCCCC2)C(=O)N1CC1CCCO1` (stereo not drawn) are 1040 nM and 170 nM.
As to `NC1=NC(c2ccccc2)(C2CCCCC2)C(=O)N1CCCCCC(=O)O` (stereo not drawn), the IC50 at Beta-secretase 1 [1] came out at 950 nM; at Beta-secretase 2 it was 310 nM.
As for `CCCC(=O)Nc1cccc(C2(C3CCCCC3)N=C(N)N(C)C2=O)c1` (stereo not drawn), the figures for the IC50 on Beta-secretase 1 [1] and against Beta-secretase 2 were 2850 nM and 490 nM, respectively.
One may read the EC50 as the concentration giving half of the maximal effect. What is called inhibition is the percentage by which the read-out fell short of the control. A higher inhibition goes with strong suppression. What is called solubility is the dissolved amount per volume that the medium holds. Read a low solubility as a poorly soluble substance. For the molecule `CN1C(=O)C(C2CCCCC2)(C2CCCCC2)N=C1N`, the IC50 against Beta-secretase 1 [1] was 1080 nM; against Beta-secretase 2, 510 nM. Moreover, on Beta-secretase 1 [2], the EC50 is 1030 nM. The inhibition at Cathepsin D [3] amounted to 33%. In addition, the Papp in data set [4] was found to be 2.9 ×10⁻⁶ cm/s; in data set [5], 7.7 ×10⁻⁶ cm/s. Besides, the solubility in data set [6] was greater than 100 µg/mL.
Consider `CN1C(=O)C(c2cccc(NC(=O)c3ccc4c(c3)OCO4)c2)(C2CCCCC2)N=C1N` (stereo not drawn), for which the IC50 against Beta-secretase 1 [1] worked out at 380 nM; at Beta-secretase 2 it was 1150 nM.
For `CN1C(=O)C(c2cccc(NC(=O)c3ccco3)c2)(C2CCCCC2)N=C1N` (stereo not drawn), the figures for the IC50 against Beta-secretase 1 [1] and on Beta-secretase 2 were 100 nM and 20 nM, respectively.
In the same order, the values of `NC1=NC(c2ccccc2)(C2CCCCC2)C(=O)N1Cc1ccccc1` (stereo not drawn) are 1240 nM and 570 nM.
In the case of `CCCCCCN1C(=O)C(c2ccccc2)(C2CCCCC2)N=C1N` (stereo not drawn), the IC50 was 1390 nM at Beta-secretase 1 [1] and 270 nM at Beta-secretase 2.
In the case of `CN1C(=O)C(c2ccccc2)(c2ccccc2)N=C1N`, the IC50 against Beta-secretase 2 is 770 nM. The EC50 at Beta-secretase 1 [2] came to 4170 nM. At Cathepsin D [3], this molecule yielded an inhibition of 34%. Besides, the Papp was found to be 3 ×10⁻⁶ cm/s in data set [4] and 11.1 ×10⁻⁶ cm/s in data set [5]. For the same molecule, the solubility in data set [6] was greater than 100 µg/mL.
As for `Cc1ccoc1C(=O)Nc1cccc(C2(C3CCCCC3)N=C(N)N(C)C2=O)c1` (stereo not drawn), the half-inhibitory concentration (IC50) on Beta-secretase 2 amounted to 30 nM; at Cathepsin D [7], 17100 nM. Besides, the EC50 at Beta-secretase 1 [2] amounted to 180 nM. The Papp in [4] came to 1.4 ×10⁻⁶ cm/s; in data set [5], 13.7 ×10⁻⁶ cm/s. The molecule also registered a solubility in data set [6] of 41 µg/mL (≈ 104 µM).
Regarding `CN1C(=O)C(c2ccccc2)(C2CCCCC2)N=C1N` (stereo not drawn), the IC50 on Beta-secretase 1 [1] turned out to be 990 nM; at Beta-secretase 2, 510 nM; on Cathepsin D [7] it was 24000 nM. In addition, the EC50 at Beta-secretase 1 [2] worked out at 810 nM. The inhibition against Cathepsin D [3] is 38%. Moreover, the Papp was determined as 7.2 ×10⁻⁶ cm/s in data set [4] and 12.8 ×10⁻⁶ cm/s in [5]. In [6], this molecule had a solubility greater than 100 µg/mL.
Regarding `COc1cccc(C(=O)Nc2cccc(C3(C4CCCCC4)N=C(N)N(C)C3=O)c2)c1` (stereo not drawn), the 50% inhibitory concentration (IC50) turned out to be 1360 nM against Beta-secretase 1 [1] and 490 nM at Beta-secretase 2.
`COCC(=O)Nc1cccc(C2(C3CCCCC3)N=C(N)N(C)C2=O)c1` (stereo not drawn) gave an IC50 at Beta-secretase 2 of 40 nM.
On to `NC1=NC(c2ccccc2)(C2CCCCC2)C(=O)N1C[C@H]1CC[C@H](C(=O)O)CC1` (stereo partly drawn), for which the IC50 at Beta-secretase 1 [1] came to 390 nM; against Beta-secretase 2, 120 nM.
Molecule `CN1C(=O)C(c2cccc(NC(=O)c3cccn3C)c2)(C2CCCCC2)N=C1N` (stereo not drawn) showed an IC50 on Beta-secretase 2 of 180 nM.
As to `NC1=NC(c2ccccc2)(c2ccccc2)C2=NCCCN12`, the EC50 at Beta-secretase 1 [2] is 16000 nM. The molecule also displayed an inhibition against Cathepsin D [3] of 2%. Also, the Papp amounted to 1 ×10⁻⁶ cm/s in [4] and 8.6 ×10⁻⁶ cm/s in [5]. This molecule also came in with a solubility in data set [6] of 55 µg/mL (≈ 189 µM).
In the case of `COCCC(=O)Nc1cccc(C2(C3CCCCC3)N=C(N)N(C)C2=O)c1` (stereo not drawn), the IC50 worked out at 7860 nM on Beta-secretase 1 [1] and 1850 nM on Beta-secretase 2.
At Beta-secretase 2, `NC1=NC(c2ccccc2)(C2CCCCC2)C(=O)N1CCCO` (stereo not drawn) showed an IC50 of 1650 nM. This molecule displayed an inhibition at Beta-secretase 1 [8] of 56%.
